Molecules are shown by their SMILES. In brackets after ≈: the same amount, converted by molar mass.

Details in one data set: not given
As for `Nc1ccc2c(c1)Cc1cc(Br)ccc1-2`, the logP was found to be 3.92. The same measure, in the same setting: to `OCc1cccc(I)c1` belongs 2.55; to `Clc1cc(Cl)c2cc(Cl)cc(Cl)c2c1`, 6.19; to `CSc1ccc2oc(N(N)CCC#N)nc2c1`, 1.5. `Nc1cnn(-c2ccccc2)c(=O)c1Cl` showed a logP of 1.14. As to `Clc1cccc2ccccc12`, the logP came out at 4. Same read-out and setting: next, `CN(C)C(=O)n1nc(C(C)(C)C)nc1SCC(=O)O`: 1.62; `N[C@@H](Cc1ccc(O)c(O)c1)C(=O)OC1CCCCC1`: 1.79. Compound `C1=C(c2ccccc2)CCNC1` gave a logP of 1.99.

Staying with this data set, now noted: 20 °C.
`CCc1cccc(C)c1N(C(=O)CCl)C(C)COC` (centres undefined): the solubility turned out to be 1.87 mM (≈ 530 µg/mL).

Compound `CC(C)COC(=O)C(C)C` gave a solubility of 5.24 mM (≈ 755 µg/mL). On the same count and under the same terms, next, `CCC(CO)[N+](=O)[O-]` (centres undefined): 453 mM (≈ 54000 µg/mL); `CCN(C)N=O`: 3400 mM (≈ 300000 µg/mL); `CC(C)OC(=O)c1cc(-c2nn(C)c(C(F)(F)F)c2Br)c(F)cc1Cl`: 0.000119 mM (≈ 0.053 µg/mL). With `CCOS(=O)(=O)OCC`, the solubility was 45.4 mM (≈ 7000 µg/mL).

Regarding `Oc1cc(O)c2ccccc2c1`, the solubility worked out at 11.2 mM (≈ 1800 µg/mL).

`C/C=C/CCC` registered a solubility of 0.594 mM (≈ 50 µg/mL). Still for that read-out and setting: next, `N#Cc1cccnc1`: 1300 mM (≈ 135000 µg/mL); `N#Cc1ccncc1`: 384 mM (≈ 40000 µg/mL).

Staying with this data set, now noted: 22 °C.
Regarding `Clc1c(Cl)c(Cl)c2ccccc2c1Cl`, the solubility was 1.6e-05 mM (≈ 0.00426 µg/mL).

Staying with this data set, now noted: 23 °C.
`NC(=O)c1c(Cl)cccc1Cl` had a solubility of 14.4 mM (≈ 2730 µg/mL).

The same data set, now with this note: 23.0 °C.
`CC(=O)C(C)CO` (centres undefined) came in with a log10 OH rate constant (cm³/molecule/s) of -10.8.

Staying with this data set, now noted: 24 °C.
`N#CSCSc1nc2ccccc2s1` yielded a solubility of 0.524 mM (≈ 125 µg/mL).

The same data set, now with this note: 25 °C.
In turn, `CC(Br)CBr` (centres undefined) gave a solubility of 7.15 mM (≈ 1440 µg/mL). Regarding `O=C(O)c1cccc(C(=O)O)c1`, the solubility is 0.602 mM (≈ 100 µg/mL). On the same count and under the same terms, next, `CCOP(=S)(OCC)SCSC(C)(C)C`: 0.0176 mM (≈ 5.07 µg/mL). Same read-out and setting: next, `COc1cc(Cl)ccc1O`: 31.5 mM (≈ 5000 µg/mL); `c1ccc2c(c1)ccc1c3ccccc3ccc21`: 8.76e-06 mM (≈ 0.002 µg/mL); `Clc1c(Cl)c(Cl)c2c(oc3c(Cl)c(Cl)c(Cl)c(Cl)c32)c1Cl`: 2.61e-09 mM (≈ 1.16e-06 µg/mL). The same measure, in the same setting: next, `Clc1cccc2cccc(Cl)c12`: 0.0016 mM (≈ 0.315 µg/mL). On to `ClC(Cl)=C(Cl)C(Cl)(Cl)Cl`, for which the solubility is 0.0684 mM (≈ 17 µg/mL). `CCCCC(CC)COC(=O)c1ccccc1C(=O)OCC(CC)CCCC` (centres undefined) had a solubility of 0.000108 mM (≈ 0.042 µg/mL). The same measure, in the same setting: next, `CC(C)c1ccccc1`: 0.51 mM (≈ 61.3 µg/mL). The same measure, in the same setting: to `Clc1ccc2ccccc2c1` belongs 0.0719 mM (≈ 11.7 µg/mL); to `CCF`, 44.9 mM (≈ 2160 µg/mL).

`CCCCCCCCCCCCCCCC` showed a solubility of 3.97e-06 mM (≈ 0.0009 µg/mL). On the same count and under the same terms, next, `CCCCOC(=O)COc1ccc(Cl)cc1Cl`: 0.166 mM (≈ 46 µg/mL); `CCCCC(CC)COP(=O)(Oc1ccccc1)Oc1ccccc1` (centres undefined): 0.00524 mM (≈ 1.9 µg/mL). In turn, `CN(C)c1ccccc1` had a solubility of 12 mM (≈ 1450 µg/mL). Still for that read-out and setting: next, `OCc1cccc2ccccc12`: 18 mM (≈ 2850 µg/mL); `CCCCC(C)CCC` (centres undefined): 0.000897 mM (≈ 0.115 µg/mL); `O=C(O)c1ccc[n+]([O-])c1`: 50.3 mM (≈ 7000 µg/mL).

The compound `CC(N)=S` gave a solubility of 2170 mM (≈ 163000 µg/mL). On the same count and under the same terms, next, `CCCN(CCC)c1c([N+](=O)[O-])cc(C(C)C)cc1[N+](=O)[O-]`: 0.000339 mM (≈ 0.105 µg/mL); `CC(O)c1ccccc1` (centres undefined): 43.8 mM (≈ 5350 µg/mL). The same measure, in the same setting: next, `C=C(C)C(=O)OCCCC`: 5.63 mM (≈ 800 µg/mL). On the same count and under the same terms, to `Oc1ccc(Cl)c2cccnc12` belongs 0.106 mM (≈ 19 µg/mL); to `CCN(CCO)c1ccccc1`, 12.1 mM (≈ 2000 µg/mL); to `OCCCc1ccccc1`, 41.7 mM (≈ 5680 µg/mL). `CCCCCCCCCCN` displayed a solubility of 3.5 mM (≈ 550 µg/mL). Same read-out and setting: next, `CC(C)(C)c1cccc(O)c1`: 13.8 mM (≈ 2070 µg/mL); `C=C(C)C(=O)OC(C)(C)C`: 7.03 mM (≈ 1000 µg/mL). With `CCC(=O)OCC(C)C`, the solubility is 13.1 mM (≈ 1700 µg/mL).

Take `ClC/C=C/CCl`: the solubility was 5.27 mM (≈ 659 µg/mL).

The same data set, now with this note: 25.0 °C.
As to `O=C1C=CC(=O)c2ccccc21`, the log10 OH rate constant (cm³/molecule/s) is -11.5. As to `FC(F)(F)I`, the log10 OH rate constant (cm³/molecule/s) is -13.3. Same read-out and setting: to `CCOC(=O)NC` belongs -11.1; to `FC(F)C(F)(F)OCC(F)(F)F`, -13; to `NCC(F)(F)F`, -12. On the same count and under the same terms, to `FC(F)(F)CCC(F)(F)F` belongs -14.1; to `CC(F)(F)CC(F)(F)F`, -14.1. Compound `CC(=O)C=CC=O` registered a log10 OH rate constant (cm³/molecule/s) of -10.3. Same read-out and setting: next, `C1CN2CCN1CC2`: -10.7; `CCOS(=O)(=O)OCC`: -11.7; `c1cc2c3c(cccc3c1)CC2`: -10.2. Still for that read-out and setting: next, `CC(C)OCCO`: -10.7. The same measure, in the same setting: to `C=C(C)OC(C)=O` belongs -10.2.

Staying with this data set, now noted: 27.0 °C.
The compound `Cc1cccc(O)c1O` returned a log10 OH rate constant (cm³/molecule/s) of -9.69.

Staying with this data set, now noted: 30 °C.
With `CNC(=O)Oc1cccc(C(C)C)c1`, the solubility was determined as 0.44 mM (≈ 85 µg/mL).

One may read the logP as the decadic logarithm of the partition coefficient of the neutral form, usually between octanol and water. Usually solubility stands for how much of the substance goes into solution per volume. A higher solubility goes with a readily soluble substance.
